These results are taken from patent US20120071536A1, “N-[(2-AZABICYCLO[2.1.1]HEX-1-YL)-ARYL-METHYL]-BENZAMIDE DERIVATIVES, PREPARATION THEREOF, AND THERAPEUTIC USE THEREOF” (SANOFI, priority 2009, published 2012).

Where a name gives a salt, the structure may show the parent alone.

In turn, `O=C(NC(c1cccc(C(F)(F)F)c1)C12CC(CN1)C2)c1cccc(C(F)(F)F)c1Cl` (racemic) (as salt: HCl) [Compound 4, N-[(2-Azabicyclo[2.1.1]hex-1-yl)[3-(trifluoromethyl)phenyl]methyl]-2-chloro-3-(trifluoromethyl)benzamide] gave a melting point of 214 to 217 °C. In the case of `CCc1ccccc1C(=O)NC(c1ccccc1)C12CC(CN1)C2` (racemic) (as salt: HCl) [Compound 28, N-[(2-Azabicyclo[2.1.1]hex-1-yl)(phenyl)methyl]-2-ethylbenzamide] it was 264 to 265 °C; in that of `CCN1CC2CC1(C(NC(=O)c1c(C)cccc1C)c1ccccc1)C2` (racemic) (as salt: HCl) [Compound 30, N-[(2-Ethyl-2-azabicyclo[2.1.1]hex-1-yl)(phenyl)methyl]-2,6-dimethylbenzamide], 212 to 214 °C; in that of `O=C(NC(c1ccccc1)C12CC(CN1)C2)c1c(Cl)ccc(C(F)(F)F)c1Cl` (racemic) [Compound 8, N-[(2-Azabicyclo[2.1.1]hex-1-yl)(phenyl)methyl]-2,6-dichloro-3-(trifluoromethyl)-benzamide], 80.5 to 81.5 °C.

As to `O=C(NC(c1ccc(F)cc1)C12CC(CN1)C2)c1cccc(C(F)(F)F)c1Cl` (racemic) [Compound 16, N-[(2-Azabicyclo[2.1.1]hex-1-yl)(4-fluorophenyl)methyl]-2-chloro-3-(trifluoromethyl)-benzamide], the melting point was 172.5 to 173 °C. In the case of `O=C(NC(c1ccccc1)C12CC(CN1)C2)c1cccc(C(F)(F)F)c1Cl` (single isomer, unassigned; (+)) (as salt: HCl) [Compound 14, (+)-N-[(2-Azabicyclo[2.1.1]hex-1-yl)(phenyl)methyl]-2-chloro-3-(trifluoromethyl)-benzamide] it was 160 to 170 °C; in that of `O=C(NC(c1ccccc1)C12CC(CN1Cc1ccccc1)C2)c1cccc(C(F)(F)F)c1Cl` (racemic) (as salt: HCl) [Compound 33, N-[(2-Benzyl-2-azabicyclo[2.1.1]hex-1-yl)(phenyl)methyl]-2-chloro-3-(trifluoromethyl)-benzamide], 244 to 245.5 °C. For `CCc1ccccc1C(=O)NC(c1ccccc1)C12CC(CN1CC)C2` (racemic) (as salt: HCl) [Compound 31, 2-Ethyl-N-[(2-ethyl-2-azabicyclo[2.1.1]hex-1-yl)(phenyl)methyl]benzamide] the value was 241 to 242 °C; for `CCCN1CC2CC1(C(NC(=O)c1cc(Br)c(Cl)cc1N)c1ccccc1)C2` (racemic) (as salt: HCl) [Compound 21, 2-Amino-5-bromo-4-chloro-N-[(phenyl)(2-propyl-2-azabicyclo[2.1.1]hex-1-yl)methyl]-benzamide], 153 to 154 °C; for `C=CCN1CC2CC1(C(NC(=O)c1cc(Br)c(Cl)cc1N)c1ccccc1)C2` (racemic) [Compound 20, N-[(2-Allyl-2-azabicyclo[2.1.1]hex-1-yl)(phenyl)methyl]-2-amino-5-bromo-4-chloro-benzamide], 66 to 67 °C.

Regarding `COc1cccc(C(NC(=O)c2cccc(C(F)(F)F)c2Cl)C23CC(CN2)C3)c1` (racemic) (as salt: HCl) [Compound 3, N-[(2-Azabicyclo[2.1.1]hex-1-yl)(3-methoxyphenyl)methyl]-2-chloro-3-(trifluoro-methyl)benzamide], the melting point lay in the range of 143 to 144 °C.

Take `CC(C)(O)CN1CC2CC1(C(NC(=O)c1c(Cl)ccc(C(F)(F)F)c1Cl)c1ccccc1)C2` (racemic) (as salt: HCl) [Compound 22]: the melting point lay within 178.5 to 179 °C. In the case of `CCS(=O)(=O)c1cc(C(=O)NC(c2ccccc2)C23CC(CN2)C3)c(OC)cc1Cl` (racemic) (as salt: HCl) [Compound 15, N-[(2-Azabicyclo[2.1.1]hex-1-yl)(phenyl)methyl]-4-chloro-5-(ethanesulphonyl)-2-methoxybenzamide] it was 232 to 233 °C; in that of `O=C(NC(c1ccc2ccccc2c1)C12CC(CN1)C2)c1cccc(C(F)(F)F)c1Cl` (racemic) (as salt: HCl) [Compound 17, N-[(2-Azabicyclo[2.1.1]hex-1-yl)(naphth-2-yl)methyl]-2-chloro-3-(trifluoromethyl)-benzamide], 135 to 170 °C. For `CCN1CC2CC1(C(NC(=O)c1cccc(C(F)(F)F)c1Cl)c1ccccc1)C2` (single isomer, unassigned; (+)) (as salt: HCl) [Compound 26, (+)-2-Chloro-N-[(2-ethyl-2-azabicyclo[2.1.1]hex-1-yl)(phenyl)methyl]-3-(trifluoromethyl)benzamide] the value was 257 to 259 °C; for `Cc1cccc(C)c1C(=O)NC(c1ccccc1)C12CC(CN1)C2` (racemic) (as salt: HCl) [Compound 27, N-[(2-Azabicyclo[2.1.1]hex-1-yl)(phenyl)methyl]-2,6-dimethylbenzamide], 273.5 to 274.5 °C; for `Cl.O=C(NC(c1ccccc1)C12CC(CN1)C2)c1cc(C(F)(F)F)ccc1Cl` (racemic), 162.5 to 163.5 °C.

In turn, `Cc1cccc(C(NC(=O)c2cccc(C(F)(F)F)c2Cl)C23CC(CN2)C3)c1` (racemic) (as salt: HCl) [Compound 2, N-[(2-Azabicyclo[2.1.1]hex-1-yl)(m-tolyl)methyl]-2-chloro-3-(trifluoromethyl)benzamide] displayed a melting point of 159.5 to 160.5 °C. For `Cc1c(C(=O)NC(c2ccccc2)C23CC(CN2)C3)cccc1C(F)(F)F` (racemic) [Compound 7, N-[(2-Azabicyclo[2.1.1]hex-1-yl)(phenyl)methyl]-2-methyl-3-(trifluoromethyl)-benzamide] the value was 146 to 147 °C; for `CCN1CC2CC1(C(NC(=O)c1cccc(C(F)(F)F)c1Cl)c1ccccc1)C2.Cl` (racemic), 152 to 155 °C. Take `Cc1cccc(C(NC(=O)c2c(Cl)ccc(C(F)(F)F)c2Cl)C23CC(CN2)C3)c1` (racemic) (as salt: HCl) [Compound 29, N-[(2-Azabicyclo[2.1.1]hex-1-yl)(m-tolyl)methyl]-2,6-dichloro-3-(trifluoromethyl)-benzamide]: the melting point was 146 to 147 °C. Compound `Cc1c(C(F)(F)F)ccc(Cl)c1C(=O)NC(c1ccccc1)C12CC(CN1)C2` (racemic) (as salt: HCl) [Compound 32, N-[(2-Azabicyclo[2.1.1]hex-1-yl)(phenyl)methyl]-6-chloro-2-methyl-3-(trifluoromethyl)-benzamide] gave a melting point of 200 to 201 °C. In the case of `Cc1cccc(C(=O)NC(c2ccccc2)C23CC(CN2)C3)c1Cl` (racemic) [Compound 12, N-[(2-Azabicyclo[2.1.1]hex-1-yl)(phenyl)methyl]-2-chloro-3-methylbenzamide] it was 139.5 to 140.5 °C. Take `O=C(NC(c1ccccc1)C12CC(CN1)C2)c1cccc(C(F)(F)F)c1Cl` (single isomer, unassigned; (-)) (as salt: HCl) [Compound 13, (−)N-[(2-Azabicyclo[2.1.1]hex-1-yl)(phenyl)methyl]-2-chloro-3-(trifluoromethyl)-benzamide]: the melting point lay within 140 to 150 °C. In the case of `O=C(NC(c1ccccc1)C12CC(CN1CC1CC1)C2)c1cccc(C(F)(F)F)c1Cl` (racemic) (as salt: HCl) [Compound 25, 2-Chloro-N-[(2-cyclopropylmethyl-2-azabicyclo[2.1.1]hex-1-yl)(phenyl)methyl]-3-(trifluoromethyl)benzamide] it was 240.5 to 241.5 °C; in that of `O=C(NC(c1cccc(O)c1)C12CC(CN1)C2)c1cccc(C(F)(F)F)c1Cl` (racemic) (as salt: HCl) [Compound 24, N-[(2-Azabicyclo[2.1.1]hex-1-yl)(3-hydroxyphenyl)methyl]-2-chloro-3-(trifluoromethyl)-benzamide], 187 to 188 °C. Regarding `Cc1ccc(F)c(C(=O)NC(c2ccccc2)C23CC(CN2)C3)c1Cl` (racemic) [Compound 10, N-[(2-Azabicyclo[2.1.1]hex-1-yl)(phenyl)methyl]-2-chloro-6-fluoro-3-methylbenzamide], the melting point lay in the range of 123 to 124 °C. The compound `Nc1ccc(C(NC(=O)c2cccc(C(F)(F)F)c2Cl)C23CC(CN2)C3)cc1` (racemic) (as salt: HCl) [Compound 1, N-[(4-Aminophenyl)(2-azabicyclo[2.1.1]hex-1-yl)methyl]-2-chloro-3-(trifluoromethyl)-benzamide] registered a melting point of 195 to 197 °C.
